Reference: ChEMBL document CHEMBL3611985, “Synthesis and structure-activity relationships of novel 9-oxime acylides with improved bactericidal activity” (2015)
≈ marks a conversion by molar mass, not a printed value.

Tests used:
Assay type in all cases: functional
[1] = tested on: Staphylococcus aureus; assay: Antimicrobial activity against methicillin-resistant Staphylococcus aureus PU32 expressing inducible ermA incubated for 20 hrs by two-fold microbroth dilution method; details: PU32, 20 h
[2] = tested on: Staphylococcus aureus; assay: Ratio of MBC to MIC against methicillin-resistant Staphylococcus aureus PU32 expressing inducible ermA
[3] = tested on: Streptococcus pneumoniae; assay: Bactericidal activity against erythromycin-susceptible Streptococcus pneumoniae ATCC 49619 incubated for 20 to 24 hrs followed by sub-culturing for 24 hrs in absence of compound
[4] = tested on: Haemophilus influenzae; assay: Bactericidal activity against azithromycin-susceptible and ampicillin-resistant Haemophilus influenzae 11P037 incubated for 20 to 24 hrs followed by sub-culturing for 24 hrs in absence of compound
[5] = tested on: Streptococcus pyogenes; assay: Antimicrobial activity against Streptococcus pyogenes 01-968 expressing inducible ermA incubated for 20 to 24 hrs by two-fold microbroth dilution method
[6] = tested on: Streptococcus pneumoniae; assay: Ratio of MBC to MIC against penicillin-susceptible Streptococcus pneumoniae PU09
[7] = tested on: Staphylococcus aureus; assay: Bactericidal activity against methicillin-resistant Staphylococcus aureus PU20 expressing constitutive ermC incubated for 20 hrs followed by sub-culturing for 24 hrs in absence of compound
[8] = tested on: Streptococcus pyogenes; assay: Ratio of MBC to MIC against Streptococcus pyogenes 12-207 expressing mef
[9] = tested on: Moraxella catarrhalis; assay: Ratio of MBC to MIC against erythromycin-susceptible Moraxella catarrhalis 11B366
[10] = tested on: Streptococcus pyogenes; assay: Antimicrobial activity against Streptococcus pyogenes 12-207 expressing mef incubated for 20 to 24 hrs by two-fold microbroth dilution method
[11] = tested on: Moraxella catarrhalis; assay: Antimicrobial activity against erythromycin-susceptible Moraxella catarrhalis 11B366 incubated for 20 hrs by two-fold microbroth dilution method; details: 11B366, 20 h
[12] = tested on: Moraxella catarrhalis; assay: Bactericidal activity against erythromycin-susceptible Moraxella catarrhalis 11B366 incubated for 20 hrs followed by sub-culturing for 24 hrs in absence of compound
[13] = tested on: Streptococcus pneumoniae; assay: Bactericidal activity against penicillin-susceptible Streptococcus pneumoniae PU09 incubated for 20 to 24 hrs followed by sub-culturing for 24 hrs in absence of compound
[14] = tested on: Haemophilus influenzae; assay: Antimicrobial activity against azithromycin-susceptible and ampicillin-resistant Haemophilus influenzae 11P037 incubated for 20 to 24 hrs by two-fold microbroth dilution method
[15] = tested on: Streptococcus pyogenes; assay: Ratio of MBC to MIC against Streptococcus pyogenes 01-968 expressing inducible ermA
[16] = tested on: Streptococcus pneumoniae; assay: Antimicrobial activity against erythromycin-susceptible Streptococcus pneumoniae ATCC 49619 incubated for 20 to 24 hrs by two-fold microbroth dilution method
[17] = tested on: Streptococcus pyogenes; assay: Bactericidal activity against Streptococcus pyogenes 01-968 expressing inducible ermA incubated for 20 to 24 hrs followed by sub-culturing for 24 hrs in absence of compound
[18] = tested on: Streptococcus pyogenes; assay: Bactericidal activity against Streptococcus pyogenes 12-207 expressing mef incubated for 20 to 24 hrs followed by sub-culturing for 24 hrs in absence of compound
[19] = tested on: Streptococcus pneumoniae; assay: Antimicrobial activity against penicillin-susceptible Streptococcus pneumoniae PU09 incubated for 20 to 24 hrs by two-fold microbroth dilution method
[20] = tested on: Haemophilus influenzae; assay: Ratio of MBC to MIC against azithromycin-susceptible and ampicillin-resistant Haemophilus influenzae 11P037
[21] = tested on: Staphylococcus aureus; assay: Antimicrobial activity against methicillin-resistant Staphylococcus aureus PU20 expressing constitutive ermC incubated for 20 hrs by two-fold microbroth dilution method; details: PU20, 20 h
[22] = tested on: Streptococcus pneumoniae; assay: Ratio of MBC to MIC against erythromycin-susceptible Streptococcus pneumoniae ATCC 49619
[23] = tested on: Staphylococcus aureus; assay: Ratio of MBC to MIC against methicillin-resistant Staphylococcus aureus PU20 expressing constitutive ermC
[24] = tested on: Staphylococcus aureus; assay: Bactericidal activity against methicillin-resistant Staphylococcus aureus PU32 expressing inducible ermA incubated for 20 hrs followed by sub-culturing for 24 hrs in absence of compound

## CC[C@H]1OC(=O)[C@H](C)[C@@H](OC(=O)Cc2ccccn2)[C@H](C)[C@@H](O[C@@H]2O[C@H](C)C[C@H](N(C)C)[C@H]2O)[C@](C)(OC)C[C@@H](C)/C(=N\OCC#Cc2cncc(C(N)=O)c2)[C@H](C)[C@H]2OC(=O)O[C@@]21C
[1]
  MIC: 0.5 µg/mL (≈ 0.551 µM)
[2]
  Ratio: >8
[3]
  MBC: 0.016 µg/mL (≈ 0.0176 µM)
[4]
  MBC: 64 µg/mL (≈ 70.5 µM)
[5]
  MIC: 0.031 µg/mL (≈ 0.0341 µM)
[6]
  Ratio: 2
[7]
  MBC: > 256 µg/mL
[8]
  Ratio: >8
[9]
  Ratio: 2
[10]
  MIC: 0.016 µg/mL (≈ 0.0176 µM)
[11]
  MIC: 1 µg/mL (≈ 1.1 µM)
[12]
  MBC: 2 µg/mL (≈ 2.2 µM)
[13]
  MBC: 1 µg/mL (≈ 1.1 µM)
[14]
  MIC: 8 µg/mL (≈ 8.81 µM)
[15]
  Ratio: 2
[16]
  MIC: 0.016 µg/mL (≈ 0.0176 µM)
[17]
  MBC: 0.062 µg/mL (≈ 0.0683 µM)
[18]
  MBC: > 0.125 µg/mL
[19]
  MIC: 0.5 µg/mL (≈ 0.551 µM)
[20]
  Ratio: 8
[21]
  MIC: 256 µg/mL (≈ 282 µM)
[22]
  Ratio: 1
[23]
  Ratio: >2
[24]
  MBC: > 4 µg/mL

## CC[C@H]1OC(=O)[C@H](C)[C@@H](OC(=O)Cc2ccccn2)[C@H](C)[C@@H](O[C@@H]2O[C@H](C)C[C@H](N(C)C)[C@H]2O)[C@](C)(OC)C[C@@H](C)/C(=N\OCC#Cc2ccc3nccnc3c2)[C@H](C)[C@H]2OC(=O)O[C@@]21C
[1]
  MIC: 1 µg/mL (≈ 1.09 µM)
[2]
  Ratio: >8
[3]
  MBC: 0.008 µg/mL (≈ 0.00873 µM)
[4]
  MBC: > 128 µg/mL
[5]
  MIC: 0.031 µg/mL (≈ 0.0338 µM)
[6]
  Ratio: 2
[7]
  MBC: 128 µg/mL (≈ 140 µM)
[8]
  Ratio: >8
[9]
  Ratio: 1
[10]
  MIC: 0.062 µg/mL (≈ 0.0677 µM)
[11]
  MIC: 2 µg/mL (≈ 2.18 µM)
[12]
  MBC: 2 µg/mL (≈ 2.18 µM)
[13]
  MBC: 1 µg/mL (≈ 1.09 µM)
[14]
  MIC: 16 µg/mL (≈ 17.5 µM)
[15]
  Ratio: 8
[16]
  MIC: ≤ 0.008 µg/mL
[17]
  MBC: 0.25 µg/mL (≈ 0.273 µM)
[18]
  MBC: > 0.5 µg/mL
[19]
  MIC: 0.5 µg/mL (≈ 0.546 µM)
[20]
  Ratio: >8
[21]
  MIC: 128 µg/mL (≈ 140 µM)
[22]
  Ratio: >=1
[23]
  Ratio: 1
[24]
  MBC: > 8 µg/mL

## CC[C@H]1OC(=O)[C@H](C)[C@@H](OC(=O)Cc2ccccn2)[C@H](C)[C@@H](O[C@@H]2O[C@H](C)C[C@H](N(C)C)[C@H]2O)[C@](C)(OC)C[C@@H](C)/C(=N\OCC#Cc2cccnc2)[C@H](C)[C@H]2OC(=O)O[C@@]21C
[1]
  MIC: 1 µg/mL (≈ 1.16 µM)
[2]
  Ratio: >8
[3]
  MBC: 0.008 µg/mL (≈ 0.00925 µM)
[4]
  MBC: > 64 µg/mL
[5]
  MIC: 0.25 µg/mL (≈ 0.289 µM)
[6]
  Ratio: 2
[7]
  MBC: 128 µg/mL (≈ 148 µM)
[8]
  Ratio: >8
[9]
  Ratio: 2
[10]
  MIC: 0.125 µg/mL (≈ 0.145 µM)
[11]
  MIC: 2 µg/mL (≈ 2.31 µM)
[12]
  MBC: 4 µg/mL (≈ 4.62 µM)
[13]
  MBC: 1 µg/mL (≈ 1.16 µM)
[14]
  MIC: 8 µg/mL (≈ 9.25 µM)
[15]
  Ratio: 1
[16]
  MIC: ≤ 0.008 µg/mL
[17]
  MBC: 0.25 µg/mL (≈ 0.289 µM)
[18]
  MBC: > 1 µg/mL
[19]
  MIC: 0.5 µg/mL (≈ 0.578 µM)
[20]
  Ratio: >8
[21]
  MIC: 128 µg/mL (≈ 148 µM)
[22]
  Ratio: >=1
[23]
  Ratio: 1
[24]
  MBC: > 8 µg/mL

## CC[C@H]1OC(=O)[C@H](C)[C@@H](OC(=O)Cc2ccccn2)[C@H](C)[C@@H](O[C@@H]2O[C@H](C)C[C@H](N(C)C)[C@H]2O)[C@](C)(OC)C[C@@H](C)/C(=N\OCC#Cc2cnc(N)nc2)[C@H](C)[C@H]2OC(=O)O[C@@]21C
[1]
  MIC: 1 µg/mL (≈ 1.14 µM)
[2]
  Ratio: 8
[3]
  MBC: 0.031 µg/mL (≈ 0.0352 µM)
[4]
  MBC: 64 µg/mL (≈ 72.6 µM)
[5]
  MIC: 0.25 µg/mL (≈ 0.284 µM)
[6]
  Ratio: 2
[7]
  MBC: 256 µg/mL (≈ 291 µM)
[8]
  Ratio: >8
[9]
  Ratio: 2
[10]
  MIC: 0.25 µg/mL (≈ 0.284 µM)
[11]
  MIC: 2 µg/mL (≈ 2.27 µM)
[12]
  MBC: 4 µg/mL (≈ 4.54 µM)
[13]
  MBC: 1 µg/mL (≈ 1.14 µM)
[14]
  MIC: 8 µg/mL (≈ 9.08 µM)
[15]
  Ratio: 2
[16]
  MIC: 0.016 µg/mL (≈ 0.0182 µM)
[17]
  MBC: 0.5 µg/mL (≈ 0.568 µM)
[18]
  MBC: > 2 µg/mL
[19]
  MIC: 0.5 µg/mL (≈ 0.568 µM)
[20]
  Ratio: 8
[21]
  MIC: 128 µg/mL (≈ 145 µM)
[22]
  Ratio: 2
[23]
  Ratio: 2
[24]
  MBC: 8 µg/mL (≈ 9.08 µM)

## CC[C@H]1OC(=O)[C@H](C)[C@@H](OC(=O)Cc2ccccn2)[C@H](C)[C@@H](O[C@@H]2O[C@H](C)C[C@H](N(C)C)[C@H]2O)[C@](C)(OC)C[C@@H](C)/C(=N\OCC#Cc2cncc(N)c2)[C@H](C)[C@H]2OC(=O)O[C@@]21C
[1]
  MIC: 0.5 µg/mL (≈ 0.568 µM)
[2]
  Ratio: >8
[3]
  MBC: 0.008 µg/mL (≈ 0.00909 µM)
[4]
  MBC: > 64 µg/mL
[5]
  MIC: 0.125 µg/mL (≈ 0.142 µM)
[6]
  Ratio: 2
[7]
  MBC: 256 µg/mL (≈ 291 µM)
[8]
  Ratio: >8
[9]
  Ratio: 2
[10]
  MIC: 0.125 µg/mL (≈ 0.142 µM)
[11]
  MIC: 1 µg/mL (≈ 1.14 µM)
[12]
  MBC: 2 µg/mL (≈ 2.27 µM)
[13]
  MBC: 1 µg/mL (≈ 1.14 µM)
[14]
  MIC: 8 µg/mL (≈ 9.09 µM)
[15]
  Ratio: 4
[16]
  MIC: ≤ 0.008 µg/mL
[17]
  MBC: 0.5 µg/mL (≈ 0.568 µM)
[18]
  MBC: > 1 µg/mL
[19]
  MIC: 0.5 µg/mL (≈ 0.568 µM)
[20]
  Ratio: >8
[21]
  MIC: 128 µg/mL (≈ 145 µM)
[22]
  Ratio: >=1
[23]
  Ratio: 2
[24]
  MBC: > 4 µg/mL

## CC[C@H]1OC(=O)[C@H](C)C(=O)[C@H](C)[C@@H](O[C@@H]2O[C@H](C)C[C@H](N(C)C)[C@H]2O)[C@](C)(OC)C[C@@H](C)/C(=N\OC/C=C/c2cnc3ccccc3c2)[C@H](C)[C@H]2OC(=O)O[C@@]21C
[1]
  MIC: 1 µg/mL (≈ 1.26 µM)
[2]
  Ratio: >8
[3]
  MBC: 0.031 µg/mL (≈ 0.0389 µM)
[4]
  MBC: > 64 µg/mL
[5]
  MIC: 0.062 µg/mL (≈ 0.0779 µM)
[6]
  Ratio: 2
[7]
  MBC: 32 µg/mL (≈ 40.2 µM)
[8]
  Ratio: >8
[9]
  Ratio: 1
[10]
  MIC: 0.016 µg/mL (≈ 0.0201 µM)
[11]
  MIC: 2 µg/mL (≈ 2.51 µM)
[12]
  MBC: 2 µg/mL (≈ 2.51 µM)
[13]
  MBC: 0.5 µg/mL (≈ 0.628 µM)
[14]
  MIC: 8 µg/mL (≈ 10.1 µM)
[15]
  Ratio: >8
[16]
  MIC: ≤ 0.008 µg/mL
[17]
  MBC: > 0.5 µg/mL
[18]
  MBC: > 0.125 µg/mL
[19]
  MIC: 0.25 µg/mL (≈ 0.314 µM)
[20]
  Ratio: >8
[21]
  MIC: 32 µg/mL (≈ 40.2 µM)
[22]
  Ratio: >=4
[23]
  Ratio: 1
[24]
  MBC: > 8 µg/mL
